Assay results taken from ChEMBL document CHEMBL5291721, “A preclinical secondary pharmacology resource illuminates target-adverse drug reaction associations of marketed drugs” (Nat Commun, 2023).

How the values were obtained:
[1] = biological target: T1, Gamma-aminobutyric acid receptor subunit alpha-1 (Rattus norvegicus, UniProt P62813)
[2] = biological target: T2, Estrogen receptor (Homo sapiens, UniProt P03372)
T2 sequence (P03372 whole entry): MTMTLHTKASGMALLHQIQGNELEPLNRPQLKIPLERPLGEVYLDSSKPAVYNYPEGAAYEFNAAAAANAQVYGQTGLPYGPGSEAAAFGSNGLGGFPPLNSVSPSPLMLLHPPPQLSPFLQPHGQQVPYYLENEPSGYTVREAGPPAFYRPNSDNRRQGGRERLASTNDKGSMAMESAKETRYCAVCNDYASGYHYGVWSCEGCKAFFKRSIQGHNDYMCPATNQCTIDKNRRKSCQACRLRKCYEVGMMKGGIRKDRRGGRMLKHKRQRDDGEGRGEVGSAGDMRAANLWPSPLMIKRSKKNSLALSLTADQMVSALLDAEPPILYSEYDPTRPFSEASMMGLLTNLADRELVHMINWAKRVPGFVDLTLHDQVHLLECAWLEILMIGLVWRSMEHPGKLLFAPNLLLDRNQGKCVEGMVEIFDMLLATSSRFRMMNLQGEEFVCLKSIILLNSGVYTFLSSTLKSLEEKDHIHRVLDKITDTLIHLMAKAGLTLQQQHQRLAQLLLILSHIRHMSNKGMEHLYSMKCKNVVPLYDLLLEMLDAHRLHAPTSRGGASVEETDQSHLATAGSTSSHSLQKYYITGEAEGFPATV

[3] = biological target: T3, Alpha-1A adrenergic receptor (Homo sapiens, UniProt P35348); format: functional, cell-based
T3 sequence (P35348 whole entry): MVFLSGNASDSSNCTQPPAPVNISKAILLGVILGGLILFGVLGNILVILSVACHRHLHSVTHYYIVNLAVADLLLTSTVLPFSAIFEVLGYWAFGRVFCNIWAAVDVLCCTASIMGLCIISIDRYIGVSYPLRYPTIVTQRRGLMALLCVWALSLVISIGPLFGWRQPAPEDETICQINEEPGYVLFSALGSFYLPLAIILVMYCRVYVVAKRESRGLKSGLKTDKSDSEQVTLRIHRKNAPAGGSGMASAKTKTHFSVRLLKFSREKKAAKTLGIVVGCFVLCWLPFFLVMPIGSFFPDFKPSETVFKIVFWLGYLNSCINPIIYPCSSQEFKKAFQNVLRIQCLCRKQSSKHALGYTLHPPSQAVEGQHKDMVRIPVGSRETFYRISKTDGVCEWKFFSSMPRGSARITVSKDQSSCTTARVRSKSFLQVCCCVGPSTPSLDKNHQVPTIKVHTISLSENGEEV

[4] = biological target: T4, Amine oxidase [flavin-containing] A (Homo sapiens, UniProt P21397); format: functional
T4 sequence (P21397 whole entry): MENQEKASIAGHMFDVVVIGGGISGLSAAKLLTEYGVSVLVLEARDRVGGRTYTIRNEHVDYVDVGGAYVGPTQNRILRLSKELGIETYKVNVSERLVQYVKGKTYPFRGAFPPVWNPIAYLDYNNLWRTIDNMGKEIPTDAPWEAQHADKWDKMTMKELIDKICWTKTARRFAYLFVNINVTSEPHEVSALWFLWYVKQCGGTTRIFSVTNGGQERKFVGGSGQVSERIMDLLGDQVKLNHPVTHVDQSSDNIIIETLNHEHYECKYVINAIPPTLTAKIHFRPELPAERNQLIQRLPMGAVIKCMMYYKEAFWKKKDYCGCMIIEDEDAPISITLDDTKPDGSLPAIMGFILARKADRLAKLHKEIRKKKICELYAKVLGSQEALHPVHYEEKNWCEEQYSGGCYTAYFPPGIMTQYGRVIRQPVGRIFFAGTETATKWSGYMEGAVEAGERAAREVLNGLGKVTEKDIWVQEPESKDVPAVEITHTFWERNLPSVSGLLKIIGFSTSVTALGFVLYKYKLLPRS

[5] = biological target: T5, Alpha-2A adrenergic receptor (Homo sapiens, UniProt P08913); format: functional, cell-based
T5 sequence (P08913 whole entry): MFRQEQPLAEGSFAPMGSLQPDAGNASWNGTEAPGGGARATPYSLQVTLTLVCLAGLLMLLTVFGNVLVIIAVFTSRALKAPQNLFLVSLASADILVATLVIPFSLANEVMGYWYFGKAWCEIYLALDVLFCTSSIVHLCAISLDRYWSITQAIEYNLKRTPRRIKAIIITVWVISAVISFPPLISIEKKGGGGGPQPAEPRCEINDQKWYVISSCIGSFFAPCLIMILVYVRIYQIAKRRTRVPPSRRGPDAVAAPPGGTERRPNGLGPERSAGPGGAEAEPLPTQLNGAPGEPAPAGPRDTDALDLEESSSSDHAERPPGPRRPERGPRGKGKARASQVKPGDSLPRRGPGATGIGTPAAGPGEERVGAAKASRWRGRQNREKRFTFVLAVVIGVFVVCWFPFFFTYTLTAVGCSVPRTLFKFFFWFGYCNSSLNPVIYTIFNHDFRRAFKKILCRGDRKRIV

[6] = biological target: Vasopressin V2 receptor (Homo sapiens, UniProt P30518)
[7] = biological target: T6, Gastrin/cholecystokinin type B receptor (Homo sapiens, UniProt P32239)
T6 sequence (P32239 whole entry): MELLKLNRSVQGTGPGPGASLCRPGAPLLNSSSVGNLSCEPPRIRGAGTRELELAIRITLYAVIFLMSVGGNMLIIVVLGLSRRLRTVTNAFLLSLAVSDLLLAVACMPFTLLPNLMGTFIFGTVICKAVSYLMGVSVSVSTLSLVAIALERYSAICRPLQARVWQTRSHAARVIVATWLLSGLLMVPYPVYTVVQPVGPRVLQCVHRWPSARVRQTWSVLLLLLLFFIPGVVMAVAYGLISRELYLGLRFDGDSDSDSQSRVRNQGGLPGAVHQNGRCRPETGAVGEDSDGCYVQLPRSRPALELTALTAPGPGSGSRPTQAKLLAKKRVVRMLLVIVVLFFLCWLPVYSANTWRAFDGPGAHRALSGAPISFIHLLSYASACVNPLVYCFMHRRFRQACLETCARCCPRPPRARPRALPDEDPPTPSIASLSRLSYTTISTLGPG

[8] = biological target: D(1A) dopamine receptor (Homo sapiens, UniProt P21728); format: functional, cell-based
[9] = biological target: T1, Gamma-aminobutyric acid receptor subunit alpha-1; remark: listed apart in the source
[10] = biological target: T1, Gamma-aminobutyric acid receptor subunit alpha-1; format: functional
[11] = biological target: Growth hormone secretagogue receptor type 1 (Homo sapiens, UniProt Q92847)
[12] = biological target: D(3) dopamine receptor (Homo sapiens, UniProt P35462)
Also: assay procedure not described here.

Vasopressin V2 receptor, sequence (P30518 whole entry): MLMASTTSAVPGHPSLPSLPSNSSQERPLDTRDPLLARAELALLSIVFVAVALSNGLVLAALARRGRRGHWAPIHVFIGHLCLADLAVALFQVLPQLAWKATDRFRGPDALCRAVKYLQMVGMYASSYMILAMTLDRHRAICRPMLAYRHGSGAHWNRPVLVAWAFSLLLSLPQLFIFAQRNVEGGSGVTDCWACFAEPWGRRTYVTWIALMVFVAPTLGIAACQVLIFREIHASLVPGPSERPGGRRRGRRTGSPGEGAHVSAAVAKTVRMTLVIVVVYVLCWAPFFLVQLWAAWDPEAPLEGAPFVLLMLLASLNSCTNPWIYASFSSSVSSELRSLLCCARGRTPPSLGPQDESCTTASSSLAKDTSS
D(1A) dopamine receptor, sequence (P21728 whole entry): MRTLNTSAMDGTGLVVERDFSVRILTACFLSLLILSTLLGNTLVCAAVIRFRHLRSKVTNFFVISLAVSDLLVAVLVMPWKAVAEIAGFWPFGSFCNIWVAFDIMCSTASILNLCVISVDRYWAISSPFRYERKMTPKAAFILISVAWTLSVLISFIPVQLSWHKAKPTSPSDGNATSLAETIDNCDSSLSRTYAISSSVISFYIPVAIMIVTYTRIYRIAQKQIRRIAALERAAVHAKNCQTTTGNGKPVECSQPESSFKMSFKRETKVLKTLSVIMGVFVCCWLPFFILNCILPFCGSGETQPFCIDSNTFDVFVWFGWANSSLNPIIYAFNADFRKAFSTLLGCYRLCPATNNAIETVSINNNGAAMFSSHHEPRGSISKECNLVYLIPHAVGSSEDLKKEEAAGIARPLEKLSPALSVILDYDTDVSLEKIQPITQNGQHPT
Growth hormone secretagogue receptor type 1, sequence (Q92847 whole entry): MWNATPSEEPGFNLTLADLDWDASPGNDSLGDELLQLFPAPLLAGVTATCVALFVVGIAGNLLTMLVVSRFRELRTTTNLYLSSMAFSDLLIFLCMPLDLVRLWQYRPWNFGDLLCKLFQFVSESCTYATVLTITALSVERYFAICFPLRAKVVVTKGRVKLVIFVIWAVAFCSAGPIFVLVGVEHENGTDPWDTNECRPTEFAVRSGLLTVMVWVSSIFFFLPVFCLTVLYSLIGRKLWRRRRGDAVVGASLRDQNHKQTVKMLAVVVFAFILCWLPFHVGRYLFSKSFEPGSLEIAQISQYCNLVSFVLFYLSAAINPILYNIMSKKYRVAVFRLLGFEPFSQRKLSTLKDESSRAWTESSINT
T1 sequence (P62813 whole entry): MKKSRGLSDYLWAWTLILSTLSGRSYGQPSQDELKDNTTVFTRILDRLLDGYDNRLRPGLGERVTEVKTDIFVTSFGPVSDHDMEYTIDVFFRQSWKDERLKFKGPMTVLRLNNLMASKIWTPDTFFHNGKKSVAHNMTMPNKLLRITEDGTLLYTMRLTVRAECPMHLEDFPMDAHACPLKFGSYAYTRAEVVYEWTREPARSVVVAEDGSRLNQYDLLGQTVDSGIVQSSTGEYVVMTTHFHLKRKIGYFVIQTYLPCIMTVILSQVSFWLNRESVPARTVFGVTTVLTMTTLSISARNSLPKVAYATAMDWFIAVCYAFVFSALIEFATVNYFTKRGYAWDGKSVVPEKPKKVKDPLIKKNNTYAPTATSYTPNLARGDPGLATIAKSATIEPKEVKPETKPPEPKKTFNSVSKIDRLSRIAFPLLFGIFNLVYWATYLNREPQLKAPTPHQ
D(3) dopamine receptor, sequence (P35462 whole entry): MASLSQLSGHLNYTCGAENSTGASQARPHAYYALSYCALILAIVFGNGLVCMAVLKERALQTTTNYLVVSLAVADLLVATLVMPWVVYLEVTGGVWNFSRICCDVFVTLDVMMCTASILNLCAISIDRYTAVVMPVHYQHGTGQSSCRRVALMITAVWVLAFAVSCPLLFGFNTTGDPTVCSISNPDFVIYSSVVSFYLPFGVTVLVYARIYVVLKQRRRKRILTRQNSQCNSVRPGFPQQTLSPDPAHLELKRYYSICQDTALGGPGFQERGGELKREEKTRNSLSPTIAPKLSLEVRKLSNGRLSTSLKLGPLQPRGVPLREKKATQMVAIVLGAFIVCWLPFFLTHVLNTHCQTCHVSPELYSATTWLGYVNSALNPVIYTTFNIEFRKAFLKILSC

CC(=O)NO [ACETOHYDROXAMIC ACID]
AC50 [1]: > 30 µM

CC(=O)NCCCCCC(=O)O [ACEXAMIC ACID]
AC50 [2]: > 30 µM

C=C(C)CNc1ccc(C(C)C(=O)O)cc1 (configuration not stated) [ALMINOPROFEN]
AC50 [2]: > 30 µM

C[C@H]1CN(C[C@H](Cc2ccccc2)C(=O)NCC(=O)O)CC[C@@]1(C)c1cccc(O)c1 [ALVIMOPAN]
AC50 [2]: > 30 µM

Cc1cc(C2CCCCC2)n(O)c(=O)c1 [CICLOPIROX]
AC50 [3]: > 30 µM
AC50 [2]: > 30 µM
AC50 [4]: > 30 µM

C[C@H]1O[C@@H](O[C@H]2CC[C@@]3(C)[C@H](CC[C@@H]4[C@@H]3C[C@@H](O)[C@]3(C)[C@@H](C5=CC(=O)OC5)CC[C@]43O)C2)C[C@H](O)[C@@H]1O[C@H]1C[C@H](O)[C@H](O[C@H]2C[C@H](O)[C@H](O[C@@H]3O[C@H](CO)[C@@H](O)[C@H](O)[C@H]3O)[C@@H](C)O2)[C@@H](C)O1 [DESLANOSIDE]
AC50 [2]: > 30 µM

CN[C@@H]1[C@H](O[C@H]2[C@H](O[C@H]3[C@H](O)[C@@H](O)[C@H](NC(=N)N)[C@@H](O)[C@@H]3NC(=N)N)O[C@@H](C)[C@]2(O)CO)O[C@@H](CO)[C@H](O)[C@H]1O [DIHYDROSTREPTOMYCIN]
AC50 [1]: > 30 µM

CCCCc1oc2ccc(NS(C)(=O)=O)cc2c1C(=O)c1ccc(OCCCN(CCCC)CCCC)cc1 [DRONEDARONE]
AC50 [1]: > 30 µM

CC1(C)O[C@@H]2C[C@H]3[C@@H]4C[C@H](F)C5=CC(=O)C=C[C@]5(C)[C@@]4(F)[C@@H](O)C[C@]3(C)[C@]2(C(=O)CO)O1 [FLUOCINOLONE ACETONIDE]
AC50 [2]: > 30 µM

O=C(O)P(=O)(O)O [FOSCARNET]
AC50 [1]: > 30 µM

N=C(N)N/N=C/c1c(Cl)cccc1Cl [GUANABENZ]
AC50 [2]: > 30 µM

COc1c2occc2c(OC)c2c(=O)cc(C)oc12 [KHELLIN]
AC50 [1]: > 30 µM

CC[C@H](C)C(=O)O[C@H]1C[C@@H](C)C=C2C=C[C@H](C)[C@H](CC[C@@H]3C[C@@H](O)CC(=O)O3)[C@H]21 [LOVASTATIN]
AC50 [3]: > 30 µM
AC50 [5]: > 10 µM
AC50 [6]: > 30 µM
AC50 [7]: > 30 µM
AC50 [8]: > 10 µM
AC50 [9]: > 10 µM
AC50 [10]: > 10 µM
AC50 [11]: > 30 µM
AC50 [4]: > 10 µM
AC50 [12]: > 10 µM

COC(=O)[C@@H](N)Cc1ccc(O)c(O)c1 [MELEVODOPA]
AC50 [1]: > 30 µM

C[N+]1(C)CCCC(OC(=O)C(O)(c2ccccc2)c2ccccc2)C1 (configuration not stated) [MEPENZOLATE]
AC50 [2]: > 30 µM

C=N[C@@H](C(=O)N[C@@H]1C(=O)N2[C@@H]1SC(C)(C)[C@@H]2C(=O)O)c1ccccc1 [METAMPICILLIN]
AC50 [1]: > 30 µM

CN(C)c1ccc(O)c2c1C[C@H]1C[C@H]3[C@H](N(C)C)C(O)=C(C(N)=O)C(=O)[C@@]3(O)C(O)=C1C2=O [MINOCYCLINE]
AC50 [2]: > 30 µM

CCNC(=O)/C=C(C)/C=C/C=C(C)/C=C/c1c(C)cc(OC)c(C)c1C [MOTRETINIDE]
AC50 [2]: 16.4 µM

CN1Cc2c(N)cccc2C(c2ccccc2)C1 (configuration not stated) [NOMIFENSINE]
AC50 [3]: > 30 µM
AC50 [5]: > 30 µM
AC50 [6]: > 30 µM
AC50 [7]: > 30 µM
AC50 [8]: > 30 µM
AC50 [9]: > 30 µM
AC50 [10]: > 30 µM
AC50 [11]: > 30 µM
AC50 [4]: > 30 µM
AC50 [12]: > 30 µM

COc1ccc2[nH]c([S+]([O-])Cc3ncc(C)c(OC)c3C)nc2c1 (configuration not stated) [OMEPRAZOLE]
AC50 [2]: > 30 µM

CCCCC1C(=O)N(c2ccccc2)N(c2ccc(O)cc2)C1=O (configuration not stated) [OXYPHENBUTAZONE ANHYDROUS]
AC50 [1]: > 30 µM

O=C(O)CN(CCN(CC(=O)O)CC(=O)O)CCN(CC(=O)O)CC(=O)O [PENTETIC ACID]
AC50 [1]: > 30 µM

CC(CN1c2ccccc2Sc2ccccc21)N(C)C (configuration not stated) [PROMETHAZINE]
AC50 [3]: > 30 µM
AC50 [6]: > 30 µM
AC50 [7]: > 30 µM
AC50 [8]: > 10 µM
AC50 [9]: > 10 µM
AC50 [1]: > 30 µM
AC50 [10]: > 10 µM
AC50 [11]: > 30 µM
AC50 [4]: > 10 µM
AC50 [12]: 0.28 µM

Cn1cc(C(=O)[C@@H]2CCc3nc[nH]c3C2)c2ccccc21 [RAMOSETRON]
AC50 [3]: > 30 µM
AC50 [5]: > 30 µM
AC50 [6]: > 30 µM
AC50 [7]: > 30 µM
AC50 [8]: > 30 µM
AC50 [9]: > 30 µM
AC50 [10]: 17 µM
AC50 [11]: > 30 µM
AC50 [4]: > 30 µM
AC50 [12]: > 30 µM

CN(CCOc1ccc(CC2SC(=O)NC2=O)cc1)c1ccccn1 (configuration not stated) [ROSIGLITAZONE]
AC50 [3]: > 30 µM
AC50 [5]: > 30 µM
AC50 [6]: > 30 µM
AC50 [7]: > 30 µM
AC50 [8]: > 30 µM
AC50 [9]: > 30 µM
AC50 [10]: > 30 µM
AC50 [11]: > 30 µM
AC50 [4]: 8 µM
AC50 [12]: > 30 µM

C[N+](C)(C)CCOC(=O)CCC(=O)OCC[N+](C)(C)C [SUXAMETHONIUM]
AC50 [2]: > 30 µM

Cc1ccsc1C(=CCCN1CCC[C@@H](C(=O)O)C1)c1sccc1C [TIAGABINE]
AC50 [2]: > 30 µM

Cc1ccc(C(=O)c2ccc(CC(=O)O)n2C)cc1 [TOLMETIN]
AC50 [2]: > 30 µM

CC(C)[C@H](N)C(=O)OCCOCn1cnc2c(=O)[nH]c(N)nc21 [VALACYCLOVIR]
AC50 [3]: > 30 µM
AC50 [5]: > 10 µM
AC50 [6]: > 30 µM
AC50 [7]: > 30 µM
AC50 [8]: > 10 µM
AC50 [9]: > 10 µM
AC50 [10]: > 10 µM
AC50 [11]: > 30 µM
AC50 [4]: > 10 µM
AC50 [12]: > 10 µM

CC[C@]12CCCN3CCc4c(n(c5ccccc45)[C@@](O)(C(=O)OC)C1)[C@@H]32 [VINCAMINE]
AC50 [1]: > 30 µM

CCC1=C[C@@H]2CN(C1)Cc1c([nH]c3ccccc13)[C@@](C(=O)OC)(c1cc3c(cc1OC)N(C)[C@H]1[C@@](O)(C(=O)OC)[C@H](OC(C)=O)[C@]4(CC)C=CCN5CC[C@]31[C@@H]54)C2 [VINORELBINE]
AC50 [2]: > 30 µM
